Assay results as given in US20100209934A1, “METHOD OF IDENTIFYING AGENTS WHICH MODULATE THE ACTIVITY OF CALCIUM-ACTIVATED CHLORIDE CHANNEL” (SNU R&DB FOUNDATION, priority 2007, published 2010).

Tests used:
mANO1 = molecular target: T1, mANO1 (Mus musculus, UniProt Q8BHY3, S527P); assay: Two-electrode voltage clamp currents in Xenopus oocytes injected with mANO1 complementary RNA; format: cell-based; set-up: expressed in transfected cells; host or cells: Xenopus laevis oocytes (cRNA injection); conditions: ionomycin 4 μM; mANO1 expressing oocytes
T1 sequence (Q8BHY3 1-960 S527P): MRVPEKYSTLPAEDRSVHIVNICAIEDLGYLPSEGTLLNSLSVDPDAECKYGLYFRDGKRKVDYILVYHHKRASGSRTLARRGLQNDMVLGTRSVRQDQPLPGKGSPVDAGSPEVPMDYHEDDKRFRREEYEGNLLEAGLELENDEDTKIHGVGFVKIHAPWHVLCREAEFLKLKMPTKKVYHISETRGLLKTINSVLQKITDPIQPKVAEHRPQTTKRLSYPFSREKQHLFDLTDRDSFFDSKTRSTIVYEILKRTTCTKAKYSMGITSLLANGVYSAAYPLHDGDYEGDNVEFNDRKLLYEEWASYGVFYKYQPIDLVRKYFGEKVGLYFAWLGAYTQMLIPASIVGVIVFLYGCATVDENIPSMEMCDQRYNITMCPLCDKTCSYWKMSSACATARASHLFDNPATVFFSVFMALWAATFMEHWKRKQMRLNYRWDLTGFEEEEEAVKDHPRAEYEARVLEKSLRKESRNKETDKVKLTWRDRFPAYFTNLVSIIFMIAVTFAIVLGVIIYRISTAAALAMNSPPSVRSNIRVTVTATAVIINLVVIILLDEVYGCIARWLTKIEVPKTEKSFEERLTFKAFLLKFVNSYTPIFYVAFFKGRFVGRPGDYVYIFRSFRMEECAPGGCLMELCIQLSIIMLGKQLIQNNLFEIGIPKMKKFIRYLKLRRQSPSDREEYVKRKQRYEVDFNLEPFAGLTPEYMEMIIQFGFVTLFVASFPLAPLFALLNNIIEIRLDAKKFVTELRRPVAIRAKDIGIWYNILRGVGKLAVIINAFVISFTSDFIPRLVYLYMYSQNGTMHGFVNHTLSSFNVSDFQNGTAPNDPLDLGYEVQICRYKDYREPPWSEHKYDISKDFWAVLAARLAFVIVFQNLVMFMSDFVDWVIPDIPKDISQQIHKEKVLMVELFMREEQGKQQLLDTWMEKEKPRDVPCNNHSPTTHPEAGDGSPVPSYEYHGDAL
Protocol: pSDTF-mANO1 obtained in Reference Example 1 was linearized using BamHI. Complementary RNA was transcribed with SP6 RNA polymerase (mMESSAGE mMACHINE® SP6 Kit, Ambion, Austin, Tex.). After being defolliculated with collagenase (Type IA, Sigma), Xenopus laevis oocytes were injected with 50 ng of the complementary RNAs of mANO1 in 50 nl of diethylpyrocarbonate-treated water. Two to five days after the injection, whole cell currents were recorded using the two-electrode voltage clamp technique. The bath solution contained 96 mM NaCl, 1 mM MgCl2, 5 mM HEPES, 2 mM KCl and 1.8 mM CaCl2 at pH 7.5 and was perfused at 2 ml/min. Experiments were performed at room temperature.
Xenopus oocytes provide a recognized model for endogenous CaCC studies because they express endogenous CaCCs that are required for ‘fertilization depolarization’ (Hartzell, H. C. et al., Mol Pharmacol 51, 683-92 (1997)). Furthermore, the biophysical and pharmacological properties of Xenopus CaCCs are similar to those of mammalian CaCCs (Machaca, K. et al., Calcium-Activated Chloride Channels (ed. Fuller, C. M.) (Academic Press, Amsterdam, 2002)). Accordingly, the present inventors expressed mANO1 in Xenopus oocytes and tested its activation by receptor stimulation using 1 μM LPA (lysophosphatidic acid). CaCCs in Xenopus are known to be activated by LPA (Guo, Z. et al., Proc Natl Acad Sci USA. 93, 14367-72 (1996); and Kim, M. J. et al., Biochem Pharmacol. 59, 241-7 (2000)). […] Moreover, LPA-induced ANO1 currents were outwardly-rectifying, like those of native CaCCs in Xenopus oocytes (Machaca, K. et al., supra) (FIG. 4C). The reversal potential was 37.7±1.05 mV (n=5), which is close to the equilibrium potential of Cl^− in Xenopus oocytes (Weber, W., Biochim Biophys Acta 1421, 213-33 (1999)).
Indeed, LPA (1 μM) applied to oocytes expressing mANO1 induced a large inward current.
Further, pretreatment of 1 μM thapsigargin blocked the IP3-induced current in a mANO1-expressing oocyte (FIGS. 10C and 10D).
LPA-induced ANO1 currents were blocked by Cl^− channel blockers. The Cl^− channel blockers were applied 10˜20 min before the LPA application. […] This blockade of agonist-induced ANO1 currents by DIDS, niflumic acid, or NPPB were also observed in mammalian cells transfected with mANO1.

mouse ANO1 = assay: Whole-cell current recording in mouse ANO1 stable HEK cell line; format: cell-based; conditions: 500 nM ionomycin, mANO1 stable HEK cell line
Protocol: A stable cell line (HEK cells) that constitutively over-expresses mANO1 is constructed for high throughput screening analysis. In order to test whether the HEK cell line elicits ANO1 currents, ionomycin was applied. Application of ionomycin evoked a robust inward Cl^− currents in a whole cell. Pipette and bath solutions contained 140 mM NMDG-Cl.
HEK293 cells were transfected with pEGFP-N-1-mANO1 using Lipofectamine (Invitrogen Corp., Carlsbad, Calif.). After selection in 800 μg/ml geneticin (Invitrogen Corp., Carlsbad, Calif.) for 15 days, single colonies were picked with cloning cylinders and tested for activity of ANO1.
To detect active compounds from chemical libraries or other sources of chemicals, a stable cell line, that constitutively expresses mouse ANO1, was constructed in accordance with the method of Reference Example 7. To construct a stable cell line, mouse ANO1 DNA was incorporated to the genomic DNA of human embryonic kidney (HEK) cells.
This confirms that ANO1 is constitutively expressed in the stable cell line.

## C[C@H](CCC(=O)O)C[C@H](C)C[C@H](C)C(=O)/C=C(\O)[C@H](C)C[C@H](C)C/C=C/[C@@H](C)[C@@H](O)[C@@H](C)[C@@H](O)C[C@@H]1CC[C@@](C)([C@H]2CC[C@@](C)([C@@H](C)O)O2)O1 [ionomycin]
mANO1
  activation of mANO1 by Ca2+ ionophore: Activation
Mouse ANO1
  inward current evoked by ionomycin: robust inward current
